Two molecules from ChEMBL document CHEMBL4257227, “Deubiquitinase inhibitors and methods for use of the same” (2016) can be followed below.

In general, AUC(0-t) refers to the area under the concentration-time curve up to a stated or last time point. High values mean more exposure, low ones less exposure. What is called half-life is the time needed for the level to fall by half in the phase considered. A higher half-life goes with slow loss.

Calls of active or inactive are those of the source.

Data set [1] relates to A-375. As to the kind of experiment: Ratio of IC50 for human A375 cells with USP5 knock down to IC50 for human A375 cells. It counts as functional.
The subject of data set [2] is SK-MEL19. As to the kind of experiment: Increase in FASBax protein expression in human SK-MEL-19 cells after 24 hrs. It counts as functional, cell-based.
Data set [3] relates to A-375. As to the kind of experiment: Induction of apoptosis in human A375 cells with USP5 and p53 knock down assessed as increase in p53 protein expression. It counts as functional, cell-based.
Data set [4] deals with A-375. As to the kind of experiment: Induction of apoptosis in human A375 cells with USP5 knock down assessed as increase in PARP cleavage. The class given is functional, cell-based.
Data set [5] relates to A-375. As to the kind of experiment: Induction of apoptosis in human A375 cells with USP5 knock down assessed as increase in FAS protein expression. The class given is functional, cell-based.
Data set [6] concerns A-375. As to the kind of experiment: Induction of apoptosis in human A375 cells with USP5 and p53 knock down assessed as increase in Bax protein expression. It counts as functional, cell-based.
Data set [7] deals with A-375. As to the kind of experiment: Induction of FAS protein expression in Vemurafenib resistant human A375 cells. It counts as functional, cell-based.
For data set [8], the system named is SK-MEL19. As to the kind of experiment: Induction of apoptosis in human SK-MEL-19 cells assessed as increase in PARP cleavage after 48 to 72 hrs. It counts as functional, cell-based.
Data set [9] deals with SK-MEL19. As to the kind of experiment: Increase in protein ubiquitination in human SK-MEL-19 cells after 24 hrs. The class given is functional, cell-based.
The test system of data set [10] is A-375. As to the kind of experiment: Induction of apoptosis in human A375 cells with USP5 knock down assessed as increase in Bid protein expression. The class given is functional, cell-based.
Data set [11] concerns A-375. As to the kind of experiment: Induction of apoptosis in human A375 cells with USP5 knock down by annexin V staining based flow cytometry. It counts as functional. For orientation: A flow cytometer gives signals particle by particle.
The test system of data set [12] is A-375. As to the kind of experiment: Induction of apoptosis in human A375 cells with USP5 and p53 knock down assessed as increase in Bid protein expression. It counts as functional, cell-based.
The subject of data set [13] is A-375. As to the kind of experiment: Induction of apoptosis in human A375 cells with USP5 and p53 knock down assessed as increase in PARP cleavage. It counts as functional, cell-based.
The subject of data set [14] is SK-MEL19. As to the kind of experiment: Induction of apoptosis in human SK-MEL-19 cells assessed as increase in caspase 8 cleavage after 48 to 72 hrs. The class given is functional, cell-based.
The test system of data set [15] is SK-MEL19. As to the kind of experiment: Increase in FAS protein expression in human SK-MEL-19 cells after 24 hrs. The class given is functional, cell-based.
Data set [16] concerns SK-MEL19. As to the kind of experiment: Induction of apoptosis in human SK-MEL-19 cells assessed as increase in Bid protein level after 48 to 72 hrs. The class given is functional, cell-based.
For data set [17], the system named is A-375. As to the kind of experiment: Induction of apoptosis in human A375 cells with USP5 knock down assessed as increase in Bax protein expression. It counts as functional, cell-based.
The subject of data set [18] is SK-MEL19. As to the kind of experiment: Reduction in DRS levels in human SK-MEL-19 cells. The class given is functional, cell-based.
Data set [19] has as its system A-375. As to the kind of experiment: Induction of apoptosis in human A375 cells with USP5 and p53 knock down assessed as increase in FAS protein expression. The class given is functional, cell-based.
Data set [20] concerns A-375. As to the kind of experiment: Induction of apoptosis in human A375 cells with USP5 knock down assessed as increase in p53 protein expression. It counts as functional, cell-based.
A short description of data set [21]: AUClast in Balb/c mouse at 5 mg/kg, iv by LC-MS analysis. The class given is ADME, organism-based. Set-up: dose 5 mg/kg, time 0 - last, route intravenous. The conditions noted are these: in vivo.
The nature of data set [22]: Plasma concentration in Balb/c mouse at 5 mg/kg, iv after 7 hrs by LC-MS analysis. The class given is ADME, organism-based.
A short description of data set [23]: Plasma concentration in Balb/c mouse at 5 mg/kg, iv after 4 hrs by LC-MS analysis. It counts as ADME, organism-based.
A short description of data set [24]: Plasma concentration in Balb/c mouse at 10 mg/kg, po after 0.5 hrs by LC-MS analysis. The class given is ADME, organism-based.
Data set [25] is described as follows: Plasma concentration in Balb/c mouse at 10 mg/kg, po after 2 hrs by LC-MS analysis. The class given is ADME, organism-based.
The nature of data set [26]: Plasma concentration in Balb/c mouse at 10 mg/kg, po after 7 hrs by LC-MS analysis. It counts as ADME, organism-based.
Data set [27] is described as follows: Plasma concentration in Balb/c mouse at 10 mg/kg, po after 4 hrs by LC-MS analysis. The class given is ADME, organism-based.
The nature of data set [28]: Plasma concentration in Balb/c mouse at 5 mg/kg, iv after 0.5 hrs by LC-MS analysis. It counts as ADME, organism-based.
The nature of data set [29]: Plasma concentration in Balb/c mouse at 5 mg/kg, iv after 2 hrs by LC-MS analysis. It counts as ADME, organism-based.
Data set [30] is described as follows: AUClast in Balb/c mouse at 10 mg/kg, po by LC-MS analysis. The class given is ADME, organism-based. Set-up: dose 10 mg/kg, route oral, time 0 - last. The conditions noted are these: in vivo.
A short description of data set [31]: Half life in ip dosed Balb/c mouse by LC-MS analysis. The class given is ADME, organism-based. The settings on record: in vivo.

Turning to `CCCS(=O)(=O)Nc1ccc(F)c(C(=O)c2c[nH]c3ncc(-c4ccc(Cl)cc4)cc23)c1F` [VEMURAFENIB], in data set [1], the “Ratio IC50” value came to 2. Besides, the result in [2], in data set [4], in data set [5], in data set [8], in data set [9] and in data set [10] was Active. In addition, the result in data set [14], in data set [15], in [16], in [17], in data set [18] and in data set [20] was Active. For the same molecule, the result in data set [3], in data set [6], in [7], in data set [12], in data set [13] and in [19] was inactive. Besides, the “fold change (FC)” value in [11] is >3.
As to `CCCC(NC(=O)/C(C#N)=C/c1ccc2cccnc2n1)c1ccccc1` (stereo unspecified), the AUC(0-t) was in the range of 692 to 993 ng·h/mL in data set [21] and 126 to 280 ng·h/mL in [30]. In addition, the results for the concentration at 7 h in data set [22] and in data set [26] were 33.7 to 71.4 ng/mL and 11.4 to 15.9 ng/mL, respectively. For the same molecule, the concentration at 4 h in data set [23] fell in the range of 33.4 to 63.1 ng/mL; in data set [27], 13.3 to 30 ng/mL. For the same molecule, the results for the concentration at 0.5 h in data set [24] and in [28] were 50.8 to 117 ng/mL and 301 to 397 ng/mL, respectively. Further, the concentration at 2 h in data set [25] was 10.6 to 40.6 ng/mL; in [29] it was 79.6 to 99.1 ng/mL. This molecule had a half-life in data set [31] of 30 to 60 min.
